One assay has as its target Plasminogen (Homo sapiens, UniProt P00747). The assay is described as follows: Inhibition of human plasmin using H-D-Val-Leu-Lys-AMC as substrate assessed as residual activity by fluorescence plate reader analysis.
In another assay the target is T1, Coagulation factor XII (Homo sapiens, UniProt P00748).
T1 sequence (P00748 whole entry): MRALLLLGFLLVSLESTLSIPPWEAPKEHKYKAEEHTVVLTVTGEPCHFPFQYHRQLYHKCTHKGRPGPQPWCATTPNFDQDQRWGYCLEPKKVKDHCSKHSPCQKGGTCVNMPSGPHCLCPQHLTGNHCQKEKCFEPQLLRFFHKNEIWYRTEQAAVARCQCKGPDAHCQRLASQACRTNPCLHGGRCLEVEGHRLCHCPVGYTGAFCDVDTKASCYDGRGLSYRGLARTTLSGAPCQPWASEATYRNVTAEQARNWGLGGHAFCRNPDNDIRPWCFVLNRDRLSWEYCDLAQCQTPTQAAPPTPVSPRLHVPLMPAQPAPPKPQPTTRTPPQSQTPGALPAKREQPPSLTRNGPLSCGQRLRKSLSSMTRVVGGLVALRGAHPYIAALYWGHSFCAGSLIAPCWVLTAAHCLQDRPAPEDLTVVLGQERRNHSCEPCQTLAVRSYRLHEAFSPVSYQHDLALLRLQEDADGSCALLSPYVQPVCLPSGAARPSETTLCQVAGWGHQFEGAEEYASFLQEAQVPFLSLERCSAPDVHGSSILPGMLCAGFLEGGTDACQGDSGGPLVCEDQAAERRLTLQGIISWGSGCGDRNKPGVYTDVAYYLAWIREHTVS
As to the kind of experiment: Inhibition of human biotinylated beta factor 12a expressed in Escherichia coli TG1 using Z-Gly-Gly-Arg-AMC as substrate assessed as residual activity by fluorometric analysis.

Another assay deals with Serine protease 1 (Homo sapiens, UniProt P07477). The assay is described as follows: Inhibition of human trypsin using Z-Gly-Gly-Arg-AMC as substrate assessed as residual activity by fluorescence plate reader analysis.
Sequence of Serine protease 1 (P07477 whole entry): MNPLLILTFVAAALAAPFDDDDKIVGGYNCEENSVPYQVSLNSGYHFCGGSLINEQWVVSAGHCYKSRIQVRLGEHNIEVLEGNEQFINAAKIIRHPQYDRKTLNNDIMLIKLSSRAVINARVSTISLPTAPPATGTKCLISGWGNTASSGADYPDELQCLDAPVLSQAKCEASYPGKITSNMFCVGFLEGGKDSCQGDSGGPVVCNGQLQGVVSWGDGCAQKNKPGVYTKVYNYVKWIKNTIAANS
Another assay concerns the target Coagulation factor XI (Homo sapiens, UniProt P03951). The assay is described as follows: Inhibition of human coagulation factor 11a using Boc-Phe-Ser-Arg-AMC as substrate assessed as residual activity by fluorometric analysis.
The target in another assay is Prothrombin (Homo sapiens, UniProt P00734). As to the kind of experiment: Inhibition of human thrombin using Z-Gly-Gly-Arg-AMC as substrate assessed as residual activity by fluorescence plate reader analysis.
The target in another assay is Plasma kallikrein (Homo sapiens, UniProt P03952). As to the kind of experiment: Inhibition of human PK using Z-Phe-Arg-AMC as substrate assessed as residual activity by fluorometric analysis.
Sequence of Plasma kallikrein (P03952 20-390 limits assumed): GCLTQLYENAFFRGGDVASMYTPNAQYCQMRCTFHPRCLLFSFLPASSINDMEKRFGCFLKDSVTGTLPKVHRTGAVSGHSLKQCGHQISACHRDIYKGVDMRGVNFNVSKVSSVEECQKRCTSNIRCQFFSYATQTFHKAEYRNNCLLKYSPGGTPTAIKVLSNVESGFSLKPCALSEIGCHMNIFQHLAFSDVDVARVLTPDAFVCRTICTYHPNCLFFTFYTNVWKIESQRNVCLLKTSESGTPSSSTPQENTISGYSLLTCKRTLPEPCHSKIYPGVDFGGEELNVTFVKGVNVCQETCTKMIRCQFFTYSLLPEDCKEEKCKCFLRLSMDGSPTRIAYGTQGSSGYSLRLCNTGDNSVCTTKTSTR
Sequence of Plasma kallikrein (P03952 391-638 limits assumed): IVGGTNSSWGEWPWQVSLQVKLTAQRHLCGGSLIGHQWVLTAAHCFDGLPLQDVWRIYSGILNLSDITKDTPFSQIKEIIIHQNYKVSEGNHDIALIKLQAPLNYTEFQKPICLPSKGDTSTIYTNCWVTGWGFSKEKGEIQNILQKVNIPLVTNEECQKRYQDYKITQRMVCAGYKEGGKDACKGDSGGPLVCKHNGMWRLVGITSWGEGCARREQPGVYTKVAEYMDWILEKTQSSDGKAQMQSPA
In assay [1] the target is Urokinase-type plasminogen activator (Homo sapiens, UniProt P00749). The assay is described as follows: Inhibition of human uPA using Z-Gly-Gly-Arg-AMC as substrate assessed as residual activity by fluorometric analysis.
Assay [2] addresses Tissue-type plasminogen activator (Homo sapiens, UniProt P00750). The assay is described as follows: Inhibition of human tPA using Z-Gly-Gly-Arg-AMC as substrate assessed as residual activity by fluorometric analysis.
Assay [3] addresses T2, Coagulation factor XII (Homo sapiens) (UniProt P00748).
T2 sequence (whole entry): T1 sequence (P00748 whole entry)
As to the kind of experiment: Inhibition of factor 12 in human plasma assessed as decrease in residual activity relative to control.

Assay [4] deals with T2, Coagulation factor XII (Homo sapiens). As to the kind of experiment: Inhibition of factor 12 in human plasma assessed as residual activity at 500 uM relative to control.
Assay [5] shares this target. The assay is described as follows: Inhibition of factor 12 in human plasma assessed as residual activity at 50 uM relative to control.
Assay [6] shares this target. The assay is described as follows: Inhibition of factor 12 in human plasma assessed as residual activity at 100 uM relative to control.
Another assay deals with Plasma. The assay is described as follows: Inhibition of intrinsic coagulation in human plasma assessed as increase in activated partial […] time. It counts as functional, cell-free.
Assay [7] has as its target T2, Coagulation factor XII (Homo sapiens). The assay is described as follows: Inhibition of factor 12 in human plasma assessed as residual activity at 20 uM relative to control.
The target is the same in assay [8]. The assay is described as follows: Inhibition of factor 12 in human plasma assessed as residual activity at 10 uM relative to control.
Assay [9] has the same target. As to the kind of experiment: Inhibition of factor 12 in human plasma assessed as residual activity at 200 uM relative to control.

Numbered stars: 1 amine (or outer) side, 2 acyl side, 3 side chain; on linkers, the order of the positions; unused ones are H or OH. Bridge positions count the residues as written; N and C are the ends. Peptide text beside a SMILES is read from it. TBMB = c1c(C[*:1])cc(C[*:3])cc1C[*:2]

Sequence of Plasminogen (P00747 97-580 limits assumed): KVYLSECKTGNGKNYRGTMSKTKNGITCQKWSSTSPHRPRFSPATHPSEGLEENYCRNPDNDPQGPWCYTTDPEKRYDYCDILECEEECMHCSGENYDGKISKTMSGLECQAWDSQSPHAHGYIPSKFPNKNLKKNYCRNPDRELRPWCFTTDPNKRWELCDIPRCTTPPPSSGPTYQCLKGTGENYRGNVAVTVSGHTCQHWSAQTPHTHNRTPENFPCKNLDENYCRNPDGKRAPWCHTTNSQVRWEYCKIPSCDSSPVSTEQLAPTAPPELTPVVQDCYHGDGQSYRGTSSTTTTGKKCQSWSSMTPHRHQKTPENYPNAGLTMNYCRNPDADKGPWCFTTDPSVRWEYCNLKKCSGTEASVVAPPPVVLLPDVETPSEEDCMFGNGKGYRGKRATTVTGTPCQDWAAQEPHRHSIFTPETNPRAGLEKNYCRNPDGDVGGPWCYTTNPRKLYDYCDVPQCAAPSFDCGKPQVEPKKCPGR
Sequence of Plasminogen (P00747 581-810 limits assumed): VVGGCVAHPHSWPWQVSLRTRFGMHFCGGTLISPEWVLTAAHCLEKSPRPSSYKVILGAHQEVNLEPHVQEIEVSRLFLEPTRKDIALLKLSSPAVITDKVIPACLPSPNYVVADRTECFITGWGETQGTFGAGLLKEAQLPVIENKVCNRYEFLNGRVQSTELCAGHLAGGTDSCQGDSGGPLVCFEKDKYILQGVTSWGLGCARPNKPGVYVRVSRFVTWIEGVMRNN
Sequence of Coagulation factor XI (P03951 19-387 limits assumed): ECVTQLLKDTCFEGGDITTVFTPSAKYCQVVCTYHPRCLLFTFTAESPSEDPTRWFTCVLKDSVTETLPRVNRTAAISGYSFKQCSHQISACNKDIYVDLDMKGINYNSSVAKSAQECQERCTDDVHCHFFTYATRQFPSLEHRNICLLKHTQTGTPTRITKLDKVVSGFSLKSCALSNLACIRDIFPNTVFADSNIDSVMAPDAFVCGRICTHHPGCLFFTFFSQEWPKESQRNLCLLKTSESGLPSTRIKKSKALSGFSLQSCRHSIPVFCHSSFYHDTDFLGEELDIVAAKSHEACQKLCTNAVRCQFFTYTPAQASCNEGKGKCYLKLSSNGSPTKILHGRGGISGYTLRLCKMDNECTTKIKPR
Sequence of Coagulation factor XI (P03951 388-625 limits assumed): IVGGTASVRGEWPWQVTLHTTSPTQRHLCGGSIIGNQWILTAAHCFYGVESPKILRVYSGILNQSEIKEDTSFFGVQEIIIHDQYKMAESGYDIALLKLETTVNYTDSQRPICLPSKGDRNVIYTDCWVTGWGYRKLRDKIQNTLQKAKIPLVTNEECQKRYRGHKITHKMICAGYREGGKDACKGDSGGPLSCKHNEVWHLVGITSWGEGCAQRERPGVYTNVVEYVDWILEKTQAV
Sequence of Tissue-type plasminogen activator (P00750 whole entry): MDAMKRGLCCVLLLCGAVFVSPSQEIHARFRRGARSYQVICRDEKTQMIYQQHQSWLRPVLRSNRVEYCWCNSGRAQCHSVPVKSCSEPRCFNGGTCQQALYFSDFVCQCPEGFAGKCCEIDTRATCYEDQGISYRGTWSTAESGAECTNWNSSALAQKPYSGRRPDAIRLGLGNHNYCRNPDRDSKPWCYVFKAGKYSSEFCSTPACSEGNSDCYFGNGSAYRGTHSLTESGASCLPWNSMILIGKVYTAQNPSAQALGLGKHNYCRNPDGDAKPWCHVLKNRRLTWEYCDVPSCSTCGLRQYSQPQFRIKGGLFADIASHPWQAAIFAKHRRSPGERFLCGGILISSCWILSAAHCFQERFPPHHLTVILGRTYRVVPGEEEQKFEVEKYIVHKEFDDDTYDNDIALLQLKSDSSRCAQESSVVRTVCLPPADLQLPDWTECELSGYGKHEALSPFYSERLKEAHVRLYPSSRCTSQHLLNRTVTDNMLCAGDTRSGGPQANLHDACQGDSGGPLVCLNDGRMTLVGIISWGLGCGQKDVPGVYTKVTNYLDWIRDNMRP

Turning to `CC(C)C[C@H](NC(=O)[C@H](CS)NC(=O)[C@H](Cc1ccc(O)cc1)NC(=O)[C@@H](NC(=O)[C@H](CCC(N)=O)NC(=O)[C@@H]1CCCN1C(=O)[C@H](CS)NC(=O)[C@@H]1CCCN1C(=O)[C@H](CCCNC(=N)N)NC(=O)[C@H](C)NC(=O)[C@H](CC(=O)O)NC(=O)[C@H](CS)NC(=O)[C@H](C)N)[C@@H](C)O)C(=O)O` (H-ACDARPCPQTYCL-OH), the inhibitory constant (Ki) (as a rule, a measure of affinity in units of concentration, obtained from inhibition or displacement) is greater than 120 µM on Plasminogen and 20.5 µM on Coagulation factor XII.

With `CC(C)C[C@H](NC(=O)[C@@H]1CCCN1C(=O)[C@H](CS)NC(=O)[C@@H]1CCCN1C(=O)[C@H](CCCN=C(N)N)NC(=O)[C@H](C)NC(=O)[C@H](C)NC(=O)[C@H](CS)NC(=O)CN)C(=O)N[C@H](C(=O)N[C@@H](C)C(=O)N[C@@H](CS)C(=O)N[C@@H](Cc1c[nH]c2ccccc12)C(=O)O)[C@@H](C)O` (H-GCAARPCPLTACW-OH), the inhibition constant Ki is greater than 120 µM on Plasminogen and 33.5 µM at Coagulation factor XII.

For the compound `C[C@@H]1NC(=O)[C@@H]2CCCN2C(=O)[C@@H]2CCCN2C(=O)[C@@H]2CSCc3cc(cc(c3)CSC[C@@H](C(=O)NCC(=O)O)NC(=O)[C@H](Cc3ccc(O)cc3)NC1=O)CSC[C@H](NC(=O)CN)C(=O)NCC(=O)NCC(=O)N[C@@H](CCCN=C(N)N)C(=O)N1CCC[C@H]1C(=O)N2` (H-GCGGRPCPPAYCG-OH; linker 2-7-12 via TBMB), the Ki (on Plasminogen; on Serine protease 1; at Coagulation factor XI; at Prothrombin; at Plasma kallikrein; in assay [1]) was greater than 120 µM throughout. Besides, the Ki at Coagulation factor XII is 1.2 µM; in assay [2] it was greater than 120 µM.

Regarding `C[C@@H]1NC(=O)[C@@H]2CCCN2C(=O)[C@@H]2CCCN2C(=O)[C@@H]2CSCc3cc(cc(c3)CSC[C@@H](C(=O)NCC(=O)O)NC(=O)[C@H](Cc3ccc(O)cc3)NC1=O)CSC[C@H](NC(=O)CN)C(=O)NCC(=O)NCC(=O)N[C@@H](CCCNC(=N)N)C(=O)N1CCC[C@H]1C(=O)N2` (H-GCGGRPCPPAYCG-OH; linker 2-7-12 via TBMB), the inhibition entry (in assay [3]; with Plasma) was “Dose-dependent effect” throughout. For the same compound, the Activity in assay [4] worked out at 20%; in [5] it was 70%; in assay [6], 51%; in assay [7], 89%; in assay [8], 95%; in assay [9] it was 42%.

With `CC(C)C[C@H](NC(=O)[C@@H]1CCCN1C(=O)[C@H](CS)NC(=O)[C@@H]1CCCN1C(=O)[C@H](CCCNC(=N)N)NC(=O)CNC(=O)[C@H](Cc1cnc[nH]1)NC(=O)[C@H](CS)NC(=O)CN)C(=O)N[C@@H](CCC(N)=O)C(=O)N[C@@H](Cc1ccc(O)cc1)C(=O)N[C@@H](CS)C(=O)N[C@@H](CCCCN)C(=O)O` (H-GCHGRPCPLQYCK-OH), the values for the Ki on Plasminogen and at Coagulation factor XII were 14.2 µM and 11.2 µM, respectively.

Consider `CSCC[C@H](NC(=O)[C@@H]1CCCN1C(=O)[C@H](CS)NC(=O)[C@@H]1CCCN1C(=O)[C@H](CCCN=C(N)N)NC(=O)CNC(=O)[C@H](CC(C)C)NC(=O)[C@H](CS)NC(=O)CN)C(=O)N[C@@H](C)C(=O)N[C@@H](Cc1ccc(O)cc1)C(=O)N[C@@H](CS)C(=O)N[C@@H](CO)C(=O)O` (H-GCLGRPCPMAYCS-OH), for which the inhibitory constant (Ki) is greater than 120 µM on Plasminogen and 5 µM on Coagulation factor XII.

For the compound `CSCC[C@H](NC(=O)[C@H](CS)NC(=O)CN)C(=O)NCC(=O)N[C@@H](CCCNC(=N)N)C(=O)N1CCC[C@H]1C(=O)N[C@@H](CS)C(=O)N1CCC[C@H]1C(=O)N[C@H](C(=O)N[C@@H](CO)C(=O)N[C@@H](Cc1ccc(O)cc1)C(=O)N[C@@H](CS)C(=O)N[C@@H](Cc1ccccc1)C(=O)O)C(C)C` (H-GCMGRPCPVSYCF-OH), the Ki on Plasminogen is greater than 120 µM; on Coagulation factor XII, 5 µM.

In the case of `CC(C)C[C@H](NC(=O)[C@H](C)NC(=O)[C@H](CC(C)C)NC(=O)[C@@H]1CCCN1C(=O)[C@H](CS)NC(=O)[C@@H]1CCCN1C(=O)[C@H](CCCNC(=N)N)NC(=O)[C@H](C)NC(=O)[C@H](Cc1c[nH]c2ccccc12)NC(=O)[C@H](CS)NC(=O)CN)C(=O)N[C@@H](CS)C(=O)N[C@@H](CCC(N)=O)C(=O)O` (H-GCWARPCPLALCQ-OH), the inhibitory constant (Ki) was greater than 120 µM at Plasminogen and 10.2 µM on Coagulation factor XII.

For the compound `C[C@H](NC(=O)[C@H](CC(N)=O)NC(=O)[C@H](CS)NC(=O)[C@@H](N)CCC(N)=O)C(=O)N[C@@H](CCCNC(=N)N)C(=O)N1CCC[C@H]1C(=O)N[C@@H](CS)C(=O)N1CCC[C@H]1C(=O)N[C@@H](CO)C(=O)N[C@@H](CO)C(=O)N[C@@H](Cc1ccc(O)cc1)C(=O)N[C@@H](CS)C(=O)N[C@@H](CCCNC(=N)N)C(=O)O` (H-QCNARPCPSSYCR-OH), the Ki at Plasminogen was found to be 118 µM; on Coagulation factor XII, 4.7 µM.

For the compound `C[C@@H]1NC(=O)[C@@H]2CCCN2C(=O)[C@@H]2CCCN2C(=O)[C@@H]2CSCc3cc(cc(c3)CSC[C@H](NC(=O)[C@@H](N)CO)C(=O)NCC(=O)NCC(=O)N[C@@H](CCCNC(=N)N)C(=O)N3CCC[C@H]3C(=O)N2)CSC[C@@H](C(=O)NCC(N)=O)NC(=O)[C@H](Cc2ccc(O)cc2)NC1=O` (H-SCGGRPCPPAYCG-NH2; linker 2-7-12 via TBMB), the Ki at Plasminogen came to 4.3 µM.

As for `C[C@H](NC(=O)[C@@H]1CCCN1C(=O)[C@@H]1CCCN1C(=O)[C@H](CS)NC(=O)[C@@H]1CCCN1C(=O)[C@H](CCCN=C(N)N)NC(=O)CNC(=O)CNC(=O)[C@H](CS)NC(=O)[C@@H](N)CO)C(=O)N[C@@H](Cc1ccc(O)cc1)C(=O)N[C@@H](CS)C(=O)N[C@@H](CCCCN)C(=O)O` (H-SCGGRPCPPAYCK-OH), the Ki on Plasminogen worked out at 8.3 µM; at Coagulation factor XII, 3.1 µM.

With `C[C@@H]1NC(=O)[C@@H]2CCCN2C(=O)[C@@H]2CCCN2C(=O)[C@@H]2CSCc3cc(cc(c3)CSC[C@H](NC(=O)[C@@H](N)CO)C(=O)NCC(=O)NCC(=O)N[C@@H](CCCNC(=N)N)C(=O)N3CCC[C@H]3C(=O)N2)CSC[C@@H](C(=O)N[C@@H](CCCCN)C(=O)O)NC(=O)[C@H](Cc2ccc(O)cc2)NC1=O` (H-SCGGRPCPPAYCK-OH; linker 2-7-12 via TBMB), the inhibition constant Ki at Plasminogen was 8.3 µM; at Serine protease 1, greater than 120 µM; at Coagulation factor XI it was greater than 120 µM; at Prothrombin it was greater than 120 µM; on Plasma kallikrein, greater than 120 µM; in assay [1] it was greater than 120 µM. For the same compound, the Ki at Coagulation factor XII is 3.1 µM; in assay [2], greater than 120 µM.

Regarding `CC(C)C[C@H](NC(=O)[C@H](CCCNC(=N)N)NC(=O)[C@H](Cc1ccccc1)NC(=O)[C@H](C)NC(=O)[C@H](CS)NC(=O)CNC(=O)[C@H](CCC(N)=O)NC(=O)[C@@H](NC(=O)[C@@H](NC(=O)[C@H](CS)NC(=O)[C@@H](N)[C@@H](C)O)[C@@H](C)O)[C@@H](C)O)C(=O)N[C@@H](CS)C(=O)N[C@@H](CO)C(=O)O` (H-TCTTQGCAFRLCS-OH), at Coagulation factor XII, the Ki was greater than 75 µM.

Consider `CC(C)[C@H](N)C(=O)N[C@@H](CS)C(=O)N[C@H](C(=O)N[C@@H](CCC(N)=O)C(=O)N[C@@H](CCCCN)C(=O)N[C@@H](Cc1ccccc1)C(=O)N[C@@H](CS)C(=O)N[C@@H](Cc1c[nH]c2ccccc12)C(=O)N[C@@H](CCCNC(=N)N)C(=O)NCC(=O)N[C@@H](Cc1c[nH]c2ccccc12)C(=O)N[C@@H](CS)C(=O)N1CCC[C@H]1C(=O)O)C(C)C` (H-VCVQKFCWRGWCP-OH), for which the inhibitory constant (Ki) at Coagulation factor XII is greater than 75 µM.

As to `N=C(N)NCCC[C@H](NC(=O)CNC(=O)[C@H](CO)NC(=O)[C@H](CS)NC(=O)[C@@H](N)CO)C(=O)N[C@@H](CCCNC(=N)N)C(=O)N[C@@H](CS)C(=O)N1CCC[C@H]1C(=O)N1CCC[C@H]1C(=O)N[C@@H](CO)C(=O)N[C@@H](Cc1ccc(O)cc1)C(=O)N[C@@H](CS)C(=O)N[C@@H](CCCCN)C(=O)O` [SCSGRRCPPSYCK] (H-SCSGRRCPPSYCK-OH), the values for the Ki on Plasminogen and on Coagulation factor XII were 3.3 µM and 7.8 µM, respectively.

The values are drawn from ChEMBL document CHEMBL2331474, “Development of a selective peptide macrocycle inhibitor of coagulation factor XII toward the generation of a safe antithrombotic therapy” (J Med Chem, 2013).
